Each structure is given as a SMILES string. “And” between values parts separate entries of the source, which are not always exact repeats. Equal entries are not always repeated.

The subject of one data set is 5xFAD mice. In words: Open field in 5xFAD mice. The data set is classed as in vivo, mouse. The settings on record: for hind-limb rearing frequency / maximum movement bout duration / meandering / proportion of time moving / total distance traveled / total movement duration / average velocity: 5xFAD 1 month; for Sup. Fig. 5-2C, open field parameter / Sup. Fig. 5-2D, open field parameter / Sup. Fig. 5-2E, open field parameter / Sup. Fig. 5-2F, open field parameter / Sup. Fig. 5-2G, open field parameter / Sup. Fig. 5-2H, open field parameter / Sup. Fig. 5-2I, open field parameter: individual animals. On the procedure:
Mice were individually placed within a cage and taken to a dimly lit room containing an open field arena 50 x 50 cm in size. They were gi ve n 10 min prior to be i ng placed within the arena, where f or a period of 5 min they were allowed to explore. Two weeks later, this was repeated. The mice were filmed with an Ikegami ICD-49E camera with EthoVision 14 (Noldus Information Technology). Th e fl oor was ei ther whit e or black,dependingon mous e coat c ol or, to allow automatic analysisof movement par am et ers, apar t from rearing which was manually counted. […]

A further data set has as its system Sprague Dawley rats. In words: Incidental novel taste learning, microinjection to anterior insular cortex. The data set is classed as in vivo, rat. The settings on record: 1 μL of 20 μM to aIC. On the procedure:
In order to evaluate the efficacy of some of the leading QR2is in vivo, we carried out double-blind experiments using 2 different modalities (Supplemental Methods), measuring memory that is dependent on different brain areas. First, cortical memory was tested using incidental novel taste learning (see Methods), in which an unfamiliar, but palatable and safe, taste is given for the first time, and the memory for this newly learned taste is then assessed 2 days later. This is done by measuring the volume of the taste consumed upon subsequent exposure to it ([32]) (Figure 4A). […] Next, hippocampal-dependent learning was evaluated using delay fear conditioning (DFC; see Methods) ([33]). […] In order to evaluate any possible effect of acute QR2i microinjection on metabolic stress in the mouse brain, ISR activation was measured by quantifying total and phosphorylated eukaryotic initiation factor 2 α (eIF2α) levels (Supplemental Figure 3A) and lipid peroxidation product, 4-hydroxynonenal (4-HNE; Supplemental Figure 3B), by immunoblot 3 hours after the injection.
Rats were taught to drink from 2 pipettes each filled with 10 mL of water during a 20 minute period, over 3 days. […] The memory for the novel taste was then assessed after 20 minutes of liquid consumption by calculating a preference index as follows: (novel taste consumed/[novel taste consumed+water consumed]) × 100 ([32], [56]). […]

Turning to `Cc1ccc(-c2cn3cccc(C)c3n2)cc1S(=O)(=O)N1CCNCC1` [YB-537], in the data set with 5xFAD mice (both sexes), the hind-limb rearing frequency worked out at 35.72 ± 3.292, the “maximum movement bout duration” value is reported as 8.061 ± 1.322 s, the meandering stood at 733.4 ± 42.8 deg/cm and the “proportion of time moving” value is 81.44 ± 1.134%. In the data set on 5xFAD mice (both sexes), this molecule came in with a total distance traveled of 3244 ± 237.9 cm and a total movement duration of 244.3 ± 3.402 s. The average velocity with 5xFAD mice (both sexes, n=16) was determined as 10.9 ± 0.800 cm/s. In the data set on 5xFAD mice (females), the hind-limb rearing frequency is 35.29 ± 4.894, the “maximum movement bout duration” value is given as 9.677 ± 3.012 s, the meandering turned out to be 696.3 ± 65.26 deg/cm and the “proportion of time moving” value was 81.84 ± 1.856%. In addition, in the data set on 5xFAD mice (females), the total distance traveled is recorded as 3581 ± 484.5 cm and the total movement duration turned out to be 245.5 ± 5.568 s. This molecule gave an average velocity in the data set with 5xFAD mice (females, n=7) of 12.03 ± 1.625 cm/s. In the data set on 5xFAD mice (males), the hind-limb rearing frequency is on record as 36.06 ± 4.703, the “maximum movement bout duration” value came to 6.804 ± 0.2919 s, the meandering is given as 762.2 ± 58.17 deg/cm and the “proportion of time moving” value worked out at 81.13 ± 1.5%. Also, in the data set on 5xFAD mice (males), the total distance traveled was found to be 2983 ± 179.3 cm and the total movement duration amounted to 243.4 ± 4.5 s. For the same molecule, the average velocity in the data set on 5xFAD mice (males, n=9) was 10.01 ± 0.611 cm/s. Further, in the data set on 5xFAD mice (Females), the “Sup. Fig. 5-2C, open field parameter” value was 10.98 and 10.27 and 10.24 and 21.02 and 13.07 and 7.45 and 11.20; the “Sup. Fig. 5-2D, open field parameter” value is 3256.8 and 3049.8 and 3043.6 and 6259.0 and 3891.4 and 2217.1 and 3346.6; the “Sup. Fig. 5-2E, open field parameter” value is 773.0 and 764.4 and 714.5 and 402.2 and 601.2 and 962.5 and 656.3; the “Sup. Fig. 5-2F, open field parameter” value was 6.70 and 6.10 and 6.62 and 27.48 and 6.06 and 5.20 and 9.58. Further, in the data set with 5xFAD mice (Females), the “Sup. Fig. 5-2G, open field parameter” value was 244.56 and 241.26 and 242.64 and 269.82 and 249.06 and 220.20 and 251.04; the “Sup. Fig. 5-2H, open field parameter” value was 81.52 and 80.42 and 80.88 and 89.94 and 83.02 and 73.40 and 83.68; the “Sup. Fig. 5-2I, open field parameter” value is 50 and 30.5 and 32 and 31.5 and 55 and 17 and 31. In the data set on 5xFAD mice (Males + Females), the “Sup. Fig. 5-2C, open field parameter” value is 10.98 and 10.27 and 10.24 and 21.02 and 7.23 and 10.34 and 8.54 and 12.00 and 10.63 and 9.25 and 12.61 and 11.34 and 8.16 and 13.07 and 7.45 and 11.20; the “Sup. Fig. 5-2D, open field parameter” value was 3256.8 and 3049.8 and 3043.6 and 6259.0 and 2163.2 and 3078.1 and 2557.7 and 3556.2 and 3161.5 and 2756.6 and 3753.0 and 3376.0 and 2440.2 and 3891.4 and 2217.1 and 3346.6; the “Sup. Fig. 5-2E, open field parameter” value is 773.0 and 764.4 and 714.5 and 402.2 and 993.0 and 822.7 and 744.6 and 500.6 and 644.6 and 955.7 and 543.5 and 756.2 and 899.4 and 601.2 and 962.5 and 656.3; the “Sup. Fig. 5-2F, open field parameter” value is 6.70 and 6.10 and 6.62 and 27.48 and 6.46 and 7.38 and 6.24 and 6.00 and 7.90 and 5.98 and 6.32 and 8.40 and 6.56 and 6.06 and 5.20 and 9.58. Also, in the data set with 5xFAD mice (Males + Females), the “Sup. Fig. 5-2G, open field parameter” value was 244.56 and 241.26 and 242.64 and 269.82 and 228.20 and 238.00 and 244.72 and 264.44 and 254.26 and 226.58 and 258.62 and 243.36 and 232.42 and 249.06 and 220.20 and 251.04; the “Sup. Fig. 5-2H, open field parameter” value was 81.52 and 80.42 and 80.88 and 89.94 and 76.07 and 79.33 and 81.57 and 88.15 and 84.75 and 75.53 and 86.21 and 81.12 and 77.47 and 83.02 and 73.40 and 83.68; the “Sup. Fig. 5-2I, open field parameter” value is 50.0 and 30.5 and 32.0 and 31.5 and 12.5 and 27.5 and 35.0 and 60.5 and 43.0 and 34.0 and 45.0 and 44.0 and 23.0 and 55.0 and 17.0 and 31.0. Besides, in the data set with 5xFAD mice (Males), the “Sup. Fig. 5-2C, open field parameter” value was 12.00 and 10.63 and 9.25 and 12.61 and 11.34 and 8.16 and 7.23 and 10.34 and 8.54; the “Sup. Fig. 5-2D, open field parameter” value was 3556.2 and 3161.5 and 2756.6 and 3753.0 and 3376.0 and 2440.2 and 2163.2 and 3078.1 and 2557.7; the “Sup. Fig. 5-2E, open field parameter” value is 500.6 and 644.6 and 955.7 and 543.5 and 756.2 and 899.4 and 993.0 and 822.7 and 744.6; the “Sup. Fig. 5-2F, open field parameter” value was 6.00 and 7.90 and 5.98 and 6.32 and 8.40 and 6.56 and 6.46 and 7.38 and 6.24. Besides, in the data set with 5xFAD mice (Males), the “Sup. Fig. 5-2G, open field parameter” value was 264.44 and 254.26 and 226.58 and 258.62 and 243.36 and 232.42 and 228.20 and 238.00 and 244.72; the “Sup. Fig. 5-2H, open field parameter” value is 88.15 and 84.75 and 75.53 and 86.21 and 81.12 and 77.47 and 76.07 and 79.33 and 81.57; the “Sup. Fig. 5-2I, open field parameter” value was 60.5 and 43 and 34 and 45 and 44 and 23 and 12.5 and 27.5 and 35.
For the molecule `Cc1ccc(-c2cn3cccc(C)c3n2)cc1S(=O)(=O)N1CCCC1` [YB-808], in the data set on Sprague Dawley rats, the “NaCl preference (individual rats)” value is 38.6905 and 81.6144 and 53.3708 and 75.5102 and 61.3924 and 79.4286 and 85.6322 and 50.9317 and 62.1118 and 87.6289 and 81.5476 and 81.8182 and 84.5161 and 50.3067 and 72.807 and 50.2703 and 76.5766 and 61.9048.

Values taken from paper PMC10541198, “Specific quinone reductase 2 inhibitors reduce metabolic burden and reverse Alzheimer’s disease phenotype in mice” (The Journal of Clinical Investigation, 2023).
